Experiments:
[1] = Survey of relative performance of fluorescent derivatizing agents against a cooling water background; type: physicochemical; settings: for Fluorescent Maximum, emission (em) / Fluorescent Maximum, excitation (ex): 0.4 ppm (acid actives) aqueous solution; for Relative Intensity Value, Composition: 0.4 ppm (acid actives), 1,5-naphthalene disulfonic acid standard = 100%, at own fluorescence maximum; for Relative Performance: composition relative intensity / cooling water background relative intensity
From the text: In preferred embodiment the derivatizing agents are selected from those that a reasonably high "relative performance" for a given background. As noted above, a molecule is generally considered highly fluorescent when it has a fluorescent quantum efficiency, or fluorescent quantum yield, within the range of from about 0.1 to about 1.0, and a light absorbance molar extinction coefficient of at least 1,000. The magnitude of fluorescent signal, or relative fluorescence, is the product of the fluorescent quantum yield multiplied times the light absorbance molar extinction coefficient. […] The "relative performance", as this phrase is used herein, is the ratio of the relative fluorescence of a composition to the relative fluorescence of a given background medium. The fluorescence readings are typically measured at the excitation/emission wavelengths that represent major peaks for the given fluorescent tagged polymer. […] Some generalities may be considered. Industrial cooling waters generally have an overall higher fluorescent intensity than industrial boiler waters, and therefore a degree of polymer tagging that is reasonably high for use in boiler waters may not be sufficiently high for cooling waters, since of course the intensity of fluorescence must not be overwhelmed by the background fluorescence and the intensity of fluorescence is dependent on the concentration level of the fluorescent species. Similarly, a polymer that is to be used at high concentration levels in a given background medium need not be tagged to the same extent as one that is to be used at much lower concentration levels, other parameters being the same.
Thus in Example 38 below a survey of relative performance values of a number of fluorescent derivatizing agents against a cooling water background is given as representative of the use of such screening method for any other group of derivatizing agents and any other type of background.
The relative performances of a variety of fluorescent derivatizing agents were surveyed against a cooling water background as follows. An aqueous solution of each agent at a concentration level of 0.4 ppm (acid actives) and the fluorescent intensity of each agent at its fluorescence maximum was determined, in comparison to a fluorescence reference standard. The standard used was 1,5-naphthalene disulfonic acid, which is not a derivatizing agent for the purposes of the present invention because it has no amine functionality. This standard was also measured at its fluorescence maximum in an aqueous solution at a concentration of 0.4 ppm (acid actives) and its intensity was assigned a "relative intensity value" of 100%. The "relative intensity values" of each of the other compositions tested were assigned in relationship to the intensity of the standard. For instance, a composition that had twice the intensity of the standard (the standard and the composition each being measured at their own fluorescence maximums) would be given a relative intensity value of 200%. Then the relative intensity values of the various compositions were compared to that of the cooling water background at the fluorescent maximum (peak excitation/emission wavelengths) of the composition. The cooling water fluorescent intensity employed was the average relative intensity of ten representative cooling water formulations measured for combination of wavelengths of excitation and emission within the range required for this survey. The relative performance for each composition thus is the value determined by dividing the relative intensity value determined for the fluorescence of each composition by the relative intensity value of the background fluorescence of cooling water at the same combination of wavelengths. The identities of the various compositions surveyed and the values determined are set forth below in Table VII.

[2] = test system: rats; settings: cited from earlier work

Row | Compound | Fluorescent Maximum, emission (em) [1] [nm] | Fluorescent Maximum, excitation (ex) [1] [nm] | Relative Intensity Value, Composition [1] [%] | Relative Performance [1] | Detectable fluorescence in the survey (in words) ([1]; Table VII survey, 0.4 ppm) | Reported LD50 (oral/rats) [2] [grams/kilogram]
1 | 1-amino-3,6-naphthalene trisulfonic acid | 500 | 360 | 4 | 0 |  | 
2 | O=S(=O)(O)c1cccc2c(S(=O)(=O)O)cccc12 [1,5-naphthalene disulfonic acid] | 330 | 290 | 100 | 14 |  | 
3 | Nc1cc(S(=O)(=O)O)cc2cccc(S(=O)(=O)O)c12 [1-amino-3,8-naphthalene disulfonic acid] | 480 | 245 | 540 | 25 |  | 
4 | Nc1ccc(S(=O)(=O)O)c2cccc(S(=O)(=O)O)c12 [1-amino-4,8-naphthalene disulfonic acid] | 500 | 255 | 122 | 5 |  | 
5 | Nc1ccc(S(=O)(=O)O)c2ccccc12 [1-amino-4-naphthalene sulfonic acid] | 420 | 325 | 444 | 24 |  | 
6 | Nc1cccc2c(S(=O)(=O)O)cccc12 [1-amino-5-naphthalene sulfonic acid] | 480 | 240 | 14 | 0 |  | 
7 | Nc1cccc2cc(S(=O)(=O)O)ccc12 [1-amino-6-naphthalene sulfonic acid] | 485 | 245 | 74 | 3 |  | 
8 | Nc1cccc2ccc(S(=O)(=O)O)cc12 [1-amino-7-naphthalene sulfonic acid] | 480 | 340 | 80 | 7 |  | 
9 | Nc1cccc2cccc(S(=O)(=O)O)c12 [1-amino-8-naphthalene sulfonic acid] |  |  | 0 | 0 | did not provide detectable fluorescence | 
10 | Nc1ccc2c(S(=O)(=O)O)cccc2c1S(=O)(=O)O [2-amino-1,5-naphthalene disulfonic acid] | 420 | 250 | 486 | 49 |  | 
11 | Nc1ccc2ccccc2c1S(=O)(=O)O [2-amino-1-naphthalene sulfonic acid] | 485 | 245 | 150 | 7 |  | 
12 | Nc1cc2ccc(S(=O)(=O)O)cc2cc1S(=O)(=O)O [2-amino-3,6-naphthalene disulfonic acid] | 440 | 250 | 77 | 8 |  | 
13 | Nc1cc(S(=O)(=O)O)c2cccc(S(=O)(=O)O)c2c1 [2-amino-4,8-naphthalene disulfonic acid] | 440 | 245 |  |  |  | 
14 | Nc1ccc2c(S(=O)(=O)O)cc(S(=O)(=O)O)cc2c1 [2-amino-5,7-naphthalene disulfonic acid] | 460 | 250 | 776 | 97 |  | 2.0
15 | Cc1ccc(N)c(S(=O)(=O)O)c1 [2-amino-5-methylbenzene sulfonic acid] | 370 | 240 | 19 | 3 |  | 
16 | Nc1ccc2c(S(=O)(=O)O)cccc2c1 [2-amino-5-naphthalene sulfonic acid] | 440 | 245 | 750 | 82 |  | 
17 | Nc1ccc2cc(S(=O)(=O)O)cc(S(=O)(=O)O)c2c1 [2-amino-6,8-naphthalene disulfonic acid] | 445 | 250 | 69 | 7 |  | > 5.0
18 | Nc1ccc2cc(S(=O)(=O)O)ccc2c1 [2-amino-6-naphthalene sulfonic acid] | 420 | 245 | 760 | 78 |  | > 5.0
19 | Nc1ccc2ccc(S(=O)(=O)O)cc2c1 [2-amino-7-naphthalene sulfonic acid] | 440 | 245 | 446 | 48 |  | 
20 | Nc1ccc2cccc(S(=O)(=O)O)c2c1 [2-amino-8-naphthalene sulfonic acid] | 440 | 240 | 638 | 75 |  | 
21 | Nc1ccccc1C(=O)O [2-amino-benzoic acid] | 400 | 240 | 110 | 13 |  | 
22 | Nc1cccc(C(=O)O)c1 [3-amino-benzoic acid] | 370 | 240 | 21 | 3 |  | 
23 | Nc1ccc(S(=O)(=O)O)cc1 [4-amino-benzene sulfonic acid] | 340 | 250 | 26 | 8 |  | 
24 | Nc1ccc(C(=O)O)cc1 [4-amino-benzoic acid] | 340 | 270 | 82 | 13 |  | 
25 | Nc1cc(S(=O)(=O)O)ccc1S(=O)(=O)O [amino-2,5-benzene disulfonic acid] | 380 | 310 | 54 | 4 |  | 
26 | Nc1ccccc1 [aniline] | 340 | 230 | 4 | 1 |  | 0.25

Reference: patent US5260386A, “Synthesis of tagged polymers by post-polymerization (trans) amidation reaction” (Nalco Chemical Company, priority 1993, dated 1993)
